US7169932B2 (priority 2001, dated 2007)
Like-named read-outs stand apart in the source and are kept apart here.

Tests used:
HIV-1 protease (Q7S) = molecular target: T1, HIV-1 protease (Q7S) (Human immunodeficiency virus type 1 group M subtype B, UniProt P04585, Q495S); assay: HIV-1 Protease RET Assay; assay type: biochemical
T1 construct: made in house
Protocol: Ki's for the inhibitors of HIV-1 protease were determined using a resonance energy transfer (RET) assay. […] This enzyme is first partially purified as inclusion bodies from cell lysate. It is then solublized in 8M urea and passed through a Q-Sepharose column (Pharmacia) for further purification. To refold this protein, samples containing Q7S is dialyzed into 50 mM sodium phosphate pH 7.0, 50 mM NaCl, 10 mM DTT, and 10% glycerol.
The commercially available peptide substrate (Molecular Probes Cat. # H-2930) RE(EDANS)SQNYPIVQK(DABCYL)R is used to assess activity and Ki's. This peptide is cleaved quantitatively by HIV-1 Pr at the Tyr-Pro bond. The EDANS fluorophore absorbs at 340 nm and emits at 490 nm. The reaction is carried out in a 96 well plate in a total volume of 100 μL and is run for 12 minutes at 37 C under steady-state conditions with 5 μM substrate and 2 nM active dimer enzyme concentration. The literature value Km for this substrate and enzyme is 103+/−8 μM (See Matayoshi, et al., “Novel Fluorogenic Substrates for Assaying Retroviral Proteases by Resonance Energy Transfer,” Science 247, 954 (1990)). The buffer for this reaction is 0.1M sodium acetate pH 4.8, 1M NaCl, 1 mM EDTA, 5 mM dithiothreitol, 10% dimethyl sulfoxide and 1 mg/ml bovine serum albumin. Inhibition curves are fit using the Morrison tight binding equation.

HIV-1 = assay: Cytopathic Effect (CPE) Inhibition Assay (XTT dye reduction); assay type: cell-based
Protocol: T-cell lines, CEM-SS, and MT-2, and viruses HIV-1 RF and HIV-1 NL4–3 (pNL4–3) were obtained from the National Institutes of Health (AIDS Research and Reference Reagent Program, Bethesda, Md.).
The ability of compounds to protect cells against HIV infection was measured by the […] dye reduction method, essentially as described (See Pauwels, R. Balzarini, J. Baba, M. Snoeck, R. Schols, D. Herdewijn, P. Desmyter, J. and De Clercq, E. 1988, “Rapid and automated tetrazolium-based colorimetric assay for the detection of anti-HIV compounds,”. J Virol Methods., 20: 309–321 and Weislow, O. S. Kiser, R. Fine, D. L. Bader, J. Shoemaker, R. H. and Boyd, M. R. 1989. “New soluble-formazan assay for HIV-1 cytopathic effects: application to high-flux screening of synthetic and natural products for AIDS-antiviral activity”. J. Natl. Cancer Inst. 81:577–586). Subject cells were infected with test virus at an moi of 0.025 to 0.819 or mock infected with medium only and added at 2×10^4 cells per well into 96 well plates containing half-log dilutions of test compounds. Six days later, 50 μl of XTT (1 mg/ml XTT tetrazolium, […] phenazine methosulfate) was added to the wells and the plate was reincubated for four hours. Viability, as determined by the amount of XTT formazan produced, was quantified spectrophotometrically by absorbance at 450 nm. Data from CPE assays were expressed as the percent of formazan produced in compound-treated cells compared to formazan produced in wells of uninfected, compound-free cells. The fifty percent effective concentration (EC50) was calculated as the concentration of compound that effected an increase in the percentage of formazan production in infected, compound-treated cells to 50% of that produced by uninfected, compound-free cells. The 50% cytotoxicity concentration (CC50) was calculated as the concentration of compound that decreased the percentage of formazan produced in uninfected, compound-treated cells to 50% of that produced in uninfected, compound-free cells. The therapeutic index was calculated by dividing the cytotoxicity (CC50) by the antiviral activity (EC50).

[1] = Ki, table of drawn compounds, unit inferred
[2] = Ave. Ki (nM), RET assay, Q7S enzyme, pH 4.8, 37 C
[3] = Human immunodeficiency virus 1, 144 h, read-out: Ave CPE EC50 (mM)

Structure (SMILES)	Ki (HIV-1 protease (Q7S); [1]) [nM]	EC50 (HIV-1; Human immunodeficiency virus 1) [nM]	Ki (HIV-1 protease (Q7S); [2]) [nM]	EC50 (HIV-1; [3]) [nM]
Cc1c(Cl)cccc1CNC(=O)[C@H]1N(C(=O)[C@@H](O)[C@H](Cc2ccccc2)NC(=O)c2cccc(O)c2C)CSC1(C)C	0.2	113	–	–
Cc1ccc(CNC(=O)[C@H]2N(C(=O)[C@@H](O)[C@H](Cc3ccccc3)NC(=O)c3cccc(O)c3C)CSC2(C)C)cc1	0.73	141	–	–
C=CCNC(=O)[C@H]1N(C(=O)[C@@H](O)[C@H](Cc2ccccc2)NC(=O)c2ccc(C)c(O)c2C)CSC1(C)C [Example B20, (R)-3-((2S,3S)-2-Hydroxy-3-{[1-(3-hydroxy-2,4-dimethyl-phenyl)-methanoyl]-amino}-4-phenyl-butanoyl)-5,5-dimethyl-thiazolidine-4-carboxylic acid allylamide]	–	–	2.1	427
Cc1c(O)cccc1C(=O)N[C@@H](Cc1ccccc1)[C@H](O)C(=O)N1CSC(C)(C)[C@H]1C(=O)NCc1cccc(CN(C)C)c1	10.5	3200	–	–
Cc1ccccc1CNC(=O)C1N(C(=O)C(O)C(Cc2ccccc2)NC(=O)C2=NNC(=O)CC2)CSC1(C)C (stereo not shown) [Example B18, 6-Oxo-1,4,5,6-tetrahydro-pyridazine-3-carboxylic acid {1-benzyl-3-[5,5-dimethyl-4-(2-methyl-benzylcarbamoyl)-thiazolidin-3-yl]-2-hydroxy-3-oxo-propyl}-amide]	–	–	0.29	457
Cc1noc(C)c1C(=O)N[C@@H](Cc1ccccc1)[C@H](O)C(=O)N1CSC(C)(C)[C@H]1C(=O)NCc1ccccc1Cl [Example B23, 3,5-Dimethyl-isoxazole-4-carboxylic acid {1-benzyl-3-[4-(2-chloro-benzylcarbamoyl)-5,5-dimethyl-thiazolidin-3-yl]-2-hydroxy-3-oxo-propyl}-amide]	–	–	0.42	1420
Cn1cccc1C(=O)N[C@@H](Cc1ccccc1)[C@H](O)C(=O)N1CSC(C)(C)[C@H]1C(=O)NCc1ccccc1C(F)(F)F [Example B26, 3-{2-Hydroxy-3-[(1-methyl-1H-pyrrole-2-carbonyl)-amino]-4-phenyl-butyryl}-5,5-dimethyl-thiazolidine-4-carboxylic acid 2-trifluoromethyl-benzylamide]	–	–	2.9	1710
Cc1c(O)cccc1C(=O)N[C@@H](Cc1ccccc1)[C@H](O)C(=O)N1CSC(C)(C)[C@H]1C(=O)NCc1ccc(C(F)(F)F)cc1F	11.1	1400	–	–
COc1cccc(CNC(=O)[C@H]2N(C(=O)[C@@H](O)[C@H](Cc3ccccc3)NC(=O)c3ccc(C)c(O)c3C)CSC2(C)C)c1	3.7	1330	–	–
COCCNC(=O)[C@H]1N(C(=O)[C@@H](O)[C@H](Cc2ccccc2)NC(=O)c2cccc(O)c2C)CSC1(C)C	0.24	158	–	–
Cc1ccccc1CNC(=O)[C@H]1N(C(=O)[C@@H](O)[C@H](Cc2ccccc2)NC(=O)c2cc(Cl)on2)CSC1(C)C [Example B4, 5-Chloro-isoxazole-3-carboxylic acid {(1S,2S)-1-benzyl-3-[(R)-5,5-dimethyl-4-(2-methyl-benzylcarbamoyl)-thiazolidin-3-yl]-2-hydroxy-3-oxo-propyl}-amide]	–	–	1.7	551
CCCOc1cccc(CNC(=O)[C@H]2N(C(=O)[C@@H](O)[C@H](Cc3ccccc3)NC(=O)c3cccc(O)c3C)CSC2(C)C)c1 [Example A43, (R)-3-((2S,3S)-2-Hydroxy-3-{[1-(3-hydroxy-2-methyl-phenyl)-methanoyl]-amino}-4-phenyl-butanoyl)-5,5-dimethyl-thiazolidine-4-carboxylic acid 3-propoxy-benzylamide]	–	–	0.35	561
COc1ccc(CNC(=O)[C@H]2N(C(=O)[C@@H](O)[C@H](Cc3ccccc3)NC(=O)c3cccc(O)c3C)CSC2(C)C)cc1 [Example A6, (R)-3-((2S,3S)-2-Hydroxy-3-{[1-(3-hydroxy-2-methyl-phenyl)-methanoyl]-amino}-4-phenyl-butanoyl)-5,5-dimethyl-thiazolidine-4-carboxylic acid 4-methoxy-benzylamide]	–	–	0.22	36
C=C(C)CNC(=O)[C@H]1N(C(=O)[C@@H](O)[C@H](Cc2ccccc2)NC(=O)c2cccc(O)c2C)CSC1(C)C [Example A28, (R)-3-((2S,3S)-2-Hydroxy-3-{[1-(3-hydroxy-2-methyl-phenyl)-methanoyl]-amino}-4-phenyl-butanoyl)-5,5-dimethyl-thiazolidine-4-carboxylic acid (2-methyl-allyl)-amide]	–	–	< 0.1	41
C#CCN(C)C(=O)[C@H]1N(C(=O)[C@@H](O)[C@H](Cc2ccccc2)NC(=O)c2cccc(O)c2C)CSC1(C)C [Example A27, (R)-3-((2S,3S)-2-Hydroxy-3-{[1-(3-hydroxy-2-methyl-phenyl)-methanoyl]-amino}-4-phenyl-butanoyl)-5,5-dimethyl-thiazolidine-4-carboxylic acid methyl-prop-2-ynyl-amide]	–	–	0.62	72
Cc1c(O)cccc1C(=O)N[C@@H](Cc1ccccc1)[C@H](O)C(=O)N1CSC(C)(C)[C@H]1C(=O)NCC(C)(C)C	≤ 0.1	53	–	–
Cc1c(O)cccc1C(=O)N[C@@H](Cc1ccccc1)[C@H](O)C(=O)N1CSC(C)(C)[C@H]1C(=O)NCCc1ccccc1 [Example A19, (R)-3-((2S,3S)-2-Hydroxy-3-{[1-(3-hydroxy-2-methyl-phenyl)-methanoyl]-amino}-4-phenyl-butanoyl)-5,5-dimethyl-thiazolidine-4-carboxylic acid phenethyl-amide]	–	–	10	442
Cc1c(O)cccc1C(=O)N[C@@H](Cc1ccccc1)[C@H](O)C(=O)N1CSC(C)(C)[C@H]1C(=O)NCc1cc(F)ccc1C(F)(F)F [Example A5, 3-(2-Hydroxy-3-{[1-(3-hydroxy-2-methyl-phenyl)-methyanoyl]amino}-4-phenyl-butanoyl)-5,5-dimethyl-thiazolidine-4-carboxlic acid fluoro trifluoromethyl-benzylamide]	–	–	2	433
Cc1ccccc1CNC(=O)[C@H]1N(C(=O)[C@@H](O)[C@H](Cc2ccccc2)NC(=O)c2cccc(F)c2C)CSC1(C)C [Example B36, (R)-3-((2S,3S)-3-{[1-(3-Fluoro-2-methyl-phenyl)-methanoyl]-amino}-2-hydroxy-4-phenyl-butanoyl)-5,5-dimethyl-thiazolidine-4-carboxylic acid 2-methyl-benzylamide]	–	–	< 0.1	615
Cc1ccccc1CNC(=O)[C@H]1N(C(=O)[C@@H](O)[C@H](Cc2ccccc2)NC(=O)c2c(C)noc2C)CSC1(C)C [Example B10, 3,5-Dimethyl-isoxazole-4-carboxylic acid {(1S,2S)-1-benzyl-3-[(R)-5,5-dimethyl-4-(2-methyl-benzylcarbamoyl)-thiazolidin-3-yl]-2-hydroxy-3-oxo-propyl}-amide]	–	–	< 0.1	1100
Cc1cc(C(=O)N[C@@H](Cc2ccccc2)[C@H](O)C(=O)N2CSC(C)(C)[C@H]2C(=O)NCc2ccccc2C)no1	2.6	1310	–	–
Cc1c(O)cccc1C(=O)N[C@@H](Cc1ccccc1)[C@H](O)C(=O)N1CSC(C)(C)[C@H]1C(=O)NC/C=C/C(F)(F)F [Example A40, (R)-3-((2S,3S)-2-Hydroxy-3-{[1-(3-hydroxy-2-methyl-phenyl)-methanoyl]-amino}-4-phenyl-butanoyl)-5,5-dimethyl-thiazolidine-4-carboxylic acid ((E)-4,4,4-trifluoro-but-2-enyl)-amide]	–	–	1.2	275
Cc1ncc(C(=O)N[C@@H](Cc2ccccc2)[C@H](O)C(=O)N2CSC(C)(C)[C@H]2C(=O)NCc2ccccc2C)c(=O)[nH]1	209	≥ 10000	–	–
